Results reported in patent US20060167106A1, “Compounds acting at the centrosome” (priority 2004, published 2006).
Entries after “also recorded” stand apart in the source; their conditions may differ. Each block holds one compound with its values, some of them ahead of it.

Assays:
CHO cells = assay: Cell morphology, simultaneous time-lapse imaging of CHO cells; format: cell-based, Chinese hamster; conditions: for cell death: cells, after a certain period of treatment
Procedure: CV-1 cells and CHO cells were previously cultured in 2-well chambered cover-slips for 48 hours and incubated in 15 mM HEPES buffer-containing Ham's F-12/DMEM medium with different compounds. The cells were imaged using phase contrast settings with the Nikon TE300 microscope/digital imaging system. The cells were imaged ‘simultaneously’ under control of MetaVue software by capturing frames for cells from different conditions at the same time period using a motorized automated XYZ stage.
To track the effect of Compound 1 on live cells, non-transfected CV-1 cells with were treated with 500 nM Compound 1 and phase contrast time-lapse images were taken every 10 seconds. […] A very low concentration of Taxol (10 nM) was used.

[1] = biological target: T1, bovine red blood cell 20S proteasome (Bos taurus, UniProt Q32KL2); assay: 20S Proteasome Assay (in vitro, Suc-Leu-Val-Tyr-AMC); format: biochemical; conditions: isolated 20S proteasome; for proteasome activity in vitro: 5 nM
T1 construct: bovine red blood cell 20S proteasome; purchased Calbiochem; host or cells: purified from bovine red blood cells
Procedure: 190 μl of reaction buffer (500 mM HEPES, 10 nM EDTA, pH 7.6), containing 0.03% SDS was pre-incubated for 5 minutes at 37° C. in the presence of 0.2 μg of bovine red blood cell 20S proteasome (Calbiochem, San Diego, Calif.) for temperature equilibration. Subsequently, inhibitors or Compound 1 were added to the reaction mixture at a final DMSO concentration of 0.5%. The reaction was initiated by adding 10 μl of the peptide-AMC substrate (Calbiochem, San Diego, Calif.) to each well. The emitted fluorescence was then measured every third minute at 37° C. for 90 minutes by a fluorescence plate reader (FlexStation II, Molecular Devices, Sunnyvale, Calif.) at 460 nm (λex360 nm) wavelength.
The buffers and reagents for the assay were purchased from Calbiochem (20S Proteasome Assay Kit; Calbiochem, San Diego, Calif.). The principle of the assay is that the release of free AMC (7-Amino-4-methylcoumarin) following degradation of the substrate results in a fluorescent signal that is a measure of proteasome activity. The quantitative analysis of 20S proteasome activity was assayed as described.

CHO-α-tubulin-YFP cells = assay: α-tubulin-YFP localization in CHO-α-tubulin-YFP cells (fluorescence imaging); format: cell-based, Chinese hamster; conditions: for accumulation of tubulin in the centrosomes (overall statement): CHO-tubulin-YFP cells, concentration and time not given; for accumulation of tubulin at the centrosomes versus in the nucleus (overall statement): cells treated, concentration not given
Text: Wild-type Chinese Hamster Ovary cells (WT CHO) cells were maintained in Ham's F-12 medium supplemented with 10% fetal bovine serum (FBS; HyClone, Logan, Utah). Cells of low density (˜20%) growing on 2-well chambered cover-slips (Labtek (Campbell, Calif.) or Fisher Scientific) were transfected with a mammalian expression vector encoding α-tubulin-YFP (Clontech, Palo Alto, Calif.) with the use of FuGENE 6 (Roche Molecular Biochemicals, Indianapolis, Ind.), according to the manufacturer's instructions. Twenty-four hours after transfection, the cells were cultured in 400 μg/ml G418 (Invitrogen, Carlsbad, Calif.)-containing selection medium for 2 weeks. Living cells were examined using a fluorescent microscope for α-tubulin-YFP expression. Cells in single colonies containing microtubules labeled with α-tubulin-YFP were lifted and expanded in G418-containing medium. Expression of α-tubulin-YFP was confirmed by the presence of the tubulin-YFP labeled microtubule pattern identical to immunostained microtubule pattern of non-transfected cells, as well as by subjecting the cells to Western blot analysis using an anti-GFP antibody (Roche Molecular Biochemicals, Basel, Switzerland) and confirming the correct mass of the α-tubulin-YFP chimera protein. Expressed tubulin-YFP was detected as a single band in Western blots. The tubulin-YFP expressing cell lines (referred as CHO-α-tubulin-YFP cells) were used in the studies.
CHO-α-tubulin-YFP cells were cultured in 2-well chambered cover-slips (Labtek (Campbell, Calif.) or Fisher Scientific) 24 hours before treatment. For comparison of the centrosomal effects of treatment with Compound 1, Compound 1+Taxol, and Taxol, CHO-α-tubulin-YFP cells were treated with Compound 1, Compound 1+Taxol, Taxol, or equivalent concentrations of DMSO-containing media for various time periods before imaging. For comparison of the effects of Compound 1 and known proteasome inhibitors on centrosomes, the nucleus, and perinuclear regions, CHO-α-tubulin-YFP cells were treated with Compound 1, ALLN (Calbiochem, San Diego, Calif.), lactacystin (Calbiochem, San Diego, Calif.) or MG132 (Calbiochem, San Diego, Calif.), and imaged at various time points from 3 hours to 24 hours after treatment.
Tubulin-YFP fluorescence in living cells or fixed cells was captured using a standard filter for FITC and objectives of 20× or 60× magnification on a Nikon TE300 microscope with a Leica DC50 color digital camera (Leica, Bannockburn, Ill.) or a CoolSnap HQ Monochrome CCD camera (Photonetrics, Tucson, Ariz.). The Leica DC50 and CoolSnapHQ cameras were controlled with Leica DC50 software and MetaVue/MetaMorph software, respectively (Universal Imaging Corp, Downingtown, Pa.).
CHO-α-tubulin-YFP cells were cultured in 2-well chambered cover-slips (Labtek (Campbell, Calif.) or Fisher Scientific) 24 hours before treatment. For comparison of effects on the centrosome, nucleus, and perinuclear regions, cells were treated with Compound 1 and known proteasome inhibitors including ALLN, MG132, Lactacystin, MG115, clasto-Lactacystin β-Lactone (cLβL), and Epoxomicin (10 μM final concentration for all except ALLN, which was used at 100 μM final concentration) (proteasome inhibitors were from Calbiochem, San Diego, Calif.) and imaged at various time points up to 24 hours during treatment.
Tubulin-YFP fluorescence in living cells or fixed cells was captured using a standard filter for FITC and objectives of 20× or 60× magnification on the Nikon TE300 microscope/digital imaging system.

[2] = cited from earlier work

proteasome activity in vitro [1]: no effect on proteasome activity
proteasome inhibitory activity in vitro (overall statement) ([1]; listed as GMP-grade Compound 1): failed to inhibit isolated proteasomes
Structure (SMILES): CN(NC(=O)CC(=O)NN(C)C(=S)c1ccccc1)C(=S)c1ccccc1 [Compound 1]
time of induced cell shrinkage (CHO cells; CHO cells, 500 nM): 70 min
cell death (CHO cells): cause cell death after a certain period of treatment
proteasome inhibitory activity in vitro (overall statement) [1]: very weak proteasome inhibitory activity in the in vitro assay
proteasome inhibitory activity in vitro ([1]; 50 μM): did not exhibit significant proteasome inhibitory activity; also recorded: neither Compound 1 nor its salt form, Compound 2, displayed significant proteasome inhibitory activity
accumulation of α-tubulin-YFP at centrosomes (CHO-α-tubulin-YFP cells; CHO cells, 50 nM, 8 hours): accumulation of α-tubulin-YFP at centrosomes; also recorded: induced accumulation of tubulin at centrosomes within 8 hours
accumulation of α-tubulin-YFP at centrosomes (CHO-α-tubulin-YFP cells; CHO cells, 50 nM, 20 hours): accumulation of α-tubulin-YFP at centrosomes
accumulation of α-tubulin-YFP at centrosomes (CHO-α-tubulin-YFP cells; CHO cells, 100 nM, 4 hours): accumulation of tubulin at centrosomes could be observed; also recorded: accumulation of α-tubulin-YFP at centrosomes
accumulation of α-tubulin-YFP at the centrosomes (CHO-α-tubulin-YFP cells; CHO cells, 0.5 μM, 5 hours): accumulation of α-tubulin-YFP at the centrosomes and perinuclear regions
accumulation of α-tubulin-YFP at the centrosomes (CHO-α-tubulin-YFP cells; CHO cells, 0.5 μM, 11 hours): accumulation of α-tubulin-YFP at the centrosomes; also recorded: more frequent and greater accumulation of tubulin at the centrosome
accumulation of tubulin-YFP at the centrosomes (CHO-α-tubulin-YFP cells; CHO cells, 0.5 μM, 24 hours): accumulation of tubulin-YFP at the centrosomes
accumulation of α-tubulin-YFP at centrosomes (CHO-α-tubulin-YFP cells; CHO cells, 500 nM, 4 hours): accumulation of α-tubulin-YFP at centrosomes
accumulation of α-tubulin-YFP at centrosomes (CHO-α-tubulin-YFP cells; CHO cells, 500 nM, 20 hours): accumulation of α-tubulin-YFP at centrosomes
first sign of tubulin accumulation at the centrosomes, time after treatment (CHO-α-tubulin-YFP cells; CHO cells, Compound 1 alone (0.5 μM)): 5 h
accumulation of tubulin in the centrosomes (overall statement) (CHO-α-tubulin-YFP cells): time-dependent accumulation of α-tubulin-YFP at the centrosomes; also recorded: caused an accumulation of tubulin in the centrosomes
accumulation of tubulin at the centrosomes versus in the nucleus (overall statement) (CHO-α-tubulin-YFP cells): induced accumulation of tubulin only at the centrosomes; also recorded: not observed
toxicity in vivo [2]: very low toxicity in vivo

proteasome activity in vitro [1]: almost complete inhibition
Structure (SMILES): CC(C)C[C@H](NC(=O)[C@H](Cc1ccccc1)NC(=O)c1cnccn1)B(O)O [Velcade]
effect on cell morphology (CHO cells; CHO cells, 100 nM): did not dramatically affect cell morphology until cell death
time of cell death (CHO cells; CHO cells, 100 nM): 210 min
cell death (CHO cells): cause cell death after a certain period of treatment
proteasome inhibition in vitro ([1]; 0.5 μM): almost completely inhibited the proteasome
accumulation of α-tubulin-YFP at centrosomes (CHO-α-tubulin-YFP cells; CHO cells, 50 nM, 20 hours): accumulation of α-tubulin-YFP at centrosomes
accumulation of α-tubulin-YFP in the nucleus (CHO-α-tubulin-YFP cells; CHO cells, 50 nM, 20 hours): accumulation of α-tubulin-YFP in the nucleus
accumulation of α-tubulin-YFP at centrosomes (CHO-α-tubulin-YFP cells; CHO cells, 500 nM, 4 hours): lack of accumulation of tubulin-YFP at the centrosomes
accumulation of α-tubulin-YFP at centrosomes (CHO-α-tubulin-YFP cells; CHO cells, 500 nM, 8 hours): accumulation of α-tubulin-YFP at centrosomes
accumulation of α-tubulin-YFP in the nucleus (CHO-α-tubulin-YFP cells; CHO cells, 500 nM, 8 hours): accumulation α-tubulin-YFP in the nucleus
accumulation of α-tubulin-YFP at centrosomes (CHO-α-tubulin-YFP cells; CHO cells, 500 nM, 20 hours): accumulation of α-tubulin-YFP at centrosomes
accumulation of α-tubulin-YFP in the nucleus (CHO-α-tubulin-YFP cells; CHO cells, 500 nM, 20 hours): accumulation of α-tubulin-YFP in the nucleus
accumulation of tubulin in the centrosomes (overall statement) (CHO-α-tubulin-YFP cells): required a higher concentration (500 nM; FIG. 25D) and/or a longer time period
accumulation of tubulin at the centrosomes versus in the nucleus (overall statement) (CHO-α-tubulin-YFP cells): both accumulation of tubulin at the centrosomes and in the nucleus; also recorded: induced accumulation of tubulin in the nucleus
toxicity in vivo [2]: greater toxicity
